Test results reported in US11135320B2, “Radioligands for pretargeted pet imaging and methods of their therapeutic use” (priority 2015, dated 2021).
Several values for one entry are separate records, joined by “and”; a condition that tells them apart may be missing. Equal entries are not always repeated.

System: subcutaneous SW1222 xenografts (A33 antigen-expressing human colorectal carcinoma)
Assay: Pretargeted biodistribution with huA33-TCO and ^64Cu-tetrazine radioligand
Format: in vivo, athymic nude mice
Description: Female athymic nude mice bearing subcutaneous SW1222 (right shoulder) xenografts (100-150 mm^3, 18-21 days post-inoculation) were administered 100 μg (0.66 nmol) huA33-TCO (in 200 μL 0.9% sterile saline) via intravenous tail vein injection. […] The specific activity of the radiotracer was adjusted using cold ^natCu-Tz-SarAr such that the molar ratio of Tzinjected:huA^33injected=1:1. Animals (n=4 per group) were euthanized by CO2(g) asphyxiation at 1, 4, 12, and 24 h after injection. After asphyxiation, 13 tissues were removed, rinsed in water, dried in air for 5 min, weighed, and counted in a gamma counter calibrated for ^64Cu. Counts were converted into activity using a calibration curve generated from known standards. Count data were background- and decay-corrected to the time of injection, and the percent injected dose per gram (% ID/g) for each tissue sample was calculated by normalization to the total activity injected. Contents within the stomach, small intestine, and large intestine were not removed for the measurements.
Contents within the stomach, small intestine, and large intestine were not removed for the measurements. […] Zeglis, B. M. et al. “A pretargeted PET imaging strategy based on bioorthogonal Diels-Alder click chemistry.” Journal of Nuclear Medicine. 54, 1389-1396 (2013). ©2013 by the Society of Nuclear Medicine and Molecular Imaging, Inc.
Zeglis, B. M. et al. “A pretargeted PET imaging strategy based on bioorthogonal Diels-Alder click chemistry.” Journal of Nuclear Medicine. 54, 1389-1396 (2013). ©2013 by the Society of Nuclear Medicine and Molecular Imaging, Inc.
(§1) Female athymic nude mice bearing subcutaneous SW1222 (right shoulder) xenografts (100-150 mm^3, 18-21 days post-inoculation) were administered 100 μg (0.66 nmol) huA33-TCO (in 200 μL 0.9% sterile saline) via intravenous tail vein injection. After an accumulation interval of 48 h, the same mice were then administered ^64Cu-Tz-SarAr (300-350 μCi in 200 μL 0.9% sterile saline) via intravenous tail vein injection (t=0). The specific activity of the radiotracer was adjusted using cold ^natCu-Tz-SarAr such that the molar ratio of Tzinjected:huA^33injected=1:1. Animals (n=4 per group) were euthanized by CO2(g) asphyxiation at 1, 4, 12, and 24 h after injection. After asphyxiation, tissues were removed, rinsed in water, dried in air for 5 min, weighed, and counted in a gamma counter calibrated for ^64Cu. Counts were converted into activity using a calibration curve generated from known standards. Count data were background- and decay-corrected to the time of injection, and the percent injected dose per gram (% ID/g) for each tissue sample was calculated by normalization to the total activity injected. Contents within the stomach, small intestine, and large intestine were not removed for the measurements.
as §1, with “120” for “48”, “Contents within the stomach, small intestine, and large intestine were not removed for the measurements.” left out

[1] = 24 h accumulation interval, 1 h p.i.
[2] = 24 h accumulation interval, 4 h p.i.
[3] = 24 h accumulation interval, 12 h p.i.
[4] = 24 h accumulation interval, 24 h p.i.
[5] = 48 h accumulation interval, 1 h p.i.
[6] = 48 h accumulation interval, 4 h p.i.

SMILES: NC12CNCCNCC(NCc3ccc(CNC(=O)CCCC(=O)NCc4ccc(-c5nncnn5)cc4)cc3)(CNCCNC1)CNCCNC2.[64Cu+2] [^64Cu-Tz-SarAr]
- Blood activity concentration [1]: 4.2±0.8 % ID/g and 4.20 ± 0.80^a % ID/g
- Bone activity concentration [1]: 0.67 ± 0.14 % ID/g
- Heart activity concentration [1]: 1.81 ± 0.46 % ID/g
- Kidney activity concentration [1]: 3.1±0.3 % ID/g and 3.08 ± 0.28 % ID/g
- Large Intestine activity concentration [1]: 0.21±0.09 % ID/g
- Liver activity concentration [1]: 1.60 ± 0.12 % ID/g
- Lung activity concentration [1]: 1.65 ± 0.51 % ID/g
- Muscle activity concentration [1]: 0.38 ± 0.06 % ID/g
- Small Intestine activity concentration [1]: 0.88 ± 0.09 % ID/g
- Spleen activity concentration [1]: 0.98 ± 0.25 % ID/g
- Stomach activity concentration [1]: 0.73 ± 0.19 % ID/g
- Tumor activity concentration [1]: 5.63±0.67 % ID/g
- Tumor/Blood activity concentration ratio [1]: 1.34 ± 0.3
- Tumor/Bone activity concentration ratio [1]: 8.43 ± 2.07
- Tumor/Heart activity concentration ratio [1]: 3.11 ± 0.87
- Tumor/Kidney activity concentration ratio [1]: 1.83 ± 0.27
- Tumor/Large Intestine activity concentration ratio [1]: 26.88 ± 12.11
- Tumor/Liver activity concentration ratio [1]: 3.52 ± 0.49
- Tumor/Lung activity concentration ratio [1]: 3.40 ± 1.12
- Tumor/Muscle activity concentration ratio [1]: 14.9±2.9 and 14.92 ± 2.85
- Tumor/Small Intestine activity concentration ratio [1]: 6.42 ± 1.01
- Tumor/Spleen activity concentration ratio [1]: 5.75 ± 1.61
- Tumor/Stomach activity concentration ratio [1]: 7.75 ± 2.24
- Blood activity concentration [2]: 4.0±0.37 % ID/g
- Bone activity concentration [2]: 0.34 ± 0.18 % ID/g
- Heart activity concentration [2]: 1.45 ± 0.03 % ID/g
- Kidney activity concentration [2]: 2.77 ± 0.57 % ID/g
- Large Intestine activity concentration [2]: 0.48 ± 0.09 % ID/g
- Liver activity concentration [2]: 1.45 ± 0.21 % ID/g
- Lung activity concentration [2]: 1.55 ± 0.45 % ID/g
- Muscle activity concentration [2]: 0.37 ± 0.07 % ID/g
- Small Intestine activity concentration [2]: 0.62 ± 0.06 % ID/g
- Spleen activity concentration [2]: 0.81 ± 0.20 % ID/g
- Stomach activity concentration [2]: 0.56 ± 0.20 % ID/g
- Tumor activity concentration [2]: 5.56±0.91 % ID/g and 5.6±0.9 % ID/g
- Tumor/Blood activity concentration ratio [2]: 1.39 ± 0.26
- Tumor/Bone activity concentration ratio [2]: 16.15 ± 8.89
- Tumor/Heart activity concentration ratio [2]: 3.84 ± 0.63
- Tumor/Kidney activity concentration ratio [2]: 2.00 ± 0.53
- Tumor/Large Intestine activity concentration ratio [2]: 11.65 ± 2.99
- Tumor/Liver activity concentration ratio [2]: 3.83 ± 0.83
- Tumor/Lung activity concentration ratio [2]: 3.59 ± 1.20
- Tumor/Muscle activity concentration ratio [2]: 14.84 ± 3.69
- Tumor/Small Intestine activity concentration ratio [2]: 8.96 ± 1.71
- Tumor/Spleen activity concentration ratio [2]: 6.88 ± 2.01
- Tumor/Stomach activity concentration ratio [2]: 9.91 ± 3.85
- Blood activity concentration [3]: 2.19 ± 0.39 % ID/g
- Bone activity concentration [3]: 0.23 ± 0.05 % ID/g
- Heart activity concentration [3]: 0.84 ± 0.1 % ID/g
- Kidney activity concentration [3]: 1.87 ± 0.42 % ID/g
- Large Intestine activity concentration [3]: 0.20 ± 0.04 % ID/g
- Liver activity concentration [3]: 1.33 ± 0.53 % ID/g
- Lung activity concentration [3]: 1.24 ± 0.22 % ID/g
- Muscle activity concentration [3]: 0.15 ± 0.01 % ID/g
- Small Intestine activity concentration [3]: 0.35 ± 0.08 % ID/g
- Spleen activity concentration [3]: 0.65 ± 0.17 % ID/g
- Stomach activity concentration [3]: 0.21 ± 0.1 % ID/g
- Tumor activity concentration [3]: 6.74±1.26 % ID/g
- Tumor/Bone activity concentration ratio [3]: 29.8 ± 8.38
- Tumor/Heart activity concentration ratio [3]: 8.01 ± 1.77
- Tumor/Kidney activity concentration ratio [3]: 3.61 ± 1.05
- Tumor/Large Intestine activity concentration ratio [3]: 33.67±8.82
- Tumor/Liver activity concentration ratio [3]: 5.06 ± 2.23
- Tumor/Lung activity concentration ratio [3]: 5.43 ± 1.41
- Tumor/Small Intestine activity concentration ratio [3]: 19.37 ± 5.95
- Tumor/Spleen activity concentration ratio [3]: 10.34 ± 3.27
- Tumor/Stomach activity concentration ratio [3]: 31.76 ± 16.62
- Blood activity concentration [4]: 2.61 ± 0.20 % ID/g
- Bone activity concentration [4]: 0.29 ± 0.05 % ID/g
- Heart activity concentration [4]: 0.81 ± 0.04 % ID/g
- Kidney activity concentration [4]: 1.9±0.4 % ID/g and 2.00 ± 0.24 % ID/g
- Large Intestine activity concentration [4]: 0.26 ± 0.06 % ID/g
- Liver activity concentration [4]: 1.51 ± 0.2 % ID/g
- Lung activity concentration [4]: 0.99 ± 0.24 % ID/g
- Muscle activity concentration [4]: 0.20 ± 0.07 % ID/g
- Small Intestine activity concentration [4]: 0.45 ± 0.07 % ID/g
- Spleen activity concentration [4]: 0.64 ± 0.04 % ID/g
- Stomach activity concentration [4]: 0.28 ± 0.07 % ID/g
- Tumor activity concentration [4]: 7.38 ± 2.02 % ID/g
- Tumor/Blood activity concentration ratio [4]: 2.83±0.81
- Tumor/Bone activity concentration ratio [4]: 25.46 ± 8.22
- Tumor/Heart activity concentration ratio [4]: 9.10 ± 2.54
- Tumor/Kidney activity concentration ratio [4]: 3.68 ± 1.1
- Tumor/Large Intestine activity concentration ratio [4]: 28.86 ± 10.28
- Tumor/Liver activity concentration ratio [4]: 4.87 ± 1.48
- Tumor/Lung activity concentration ratio [4]: 7.44 ± 2.74
- Tumor/Muscle activity concentration ratio [4]: 37.37±16.1 and 37.37 ± 16.06
- Tumor/Small Intestine activity concentration ratio [4]: 16.33 ± 5.12
- Tumor/Spleen activity concentration ratio [4]: 11.45 ± 3.20
- Tumor/Stomach activity concentration ratio [4]: 26.44 ± 9.89
- activity concentration in all other non-target tissues (24 h accumulation interval, later time points, other than blood and kidneys): less than 1.5 % ID/g
- Blood activity concentration [5]: 2.15 ± 0.5 % ID/g
- Bone activity concentration [5]: 0.23 ± 0.05 % ID/g
- Heart activity concentration [5]: 1.05 ± 0.24 % ID/g
- Kidney activity concentration [5]: 1.98 ± 0.26 % ID/g
- Large Intestine activity concentration [5]: 0.29 ± 0.09 % ID/g
- Liver activity concentration [5]: 1.79 ± 0.09 % ID/g
- Lung activity concentration [5]: 1.68 ± 0.09 % ID/g
- Muscle activity concentration [5]: 0.22 ± 0.11 % ID/g
- Small Intestine activity concentration [5]: 0.54 ± 0.15 % ID/g
- Spleen activity concentration [5]: 0.84 ± 0.27 % ID/g
- Stomach activity concentration [5]: 0.39 ± 0.17 % ID/g
- Tumor activity concentration [5]: 4.49 ± 0.44 % ID/g
- Tumor/Blood activity concentration ratio [5]: 2.09 ± 0.52
- Tumor/Bone activity concentration ratio [5]: 19.48 ± 4.94
- Tumor/Heart activity concentration ratio [5]: 4.27 ± 1.05
- Tumor/Kidney activity concentration ratio [5]: 2.27 ± 0.37
- Tumor/Large Intestine activity concentration ratio [5]: 15.48 ± 5.25
- Tumor/Liver activity concentration ratio [5]: 2.51 ± 0.27
- Tumor/Lung activity concentration ratio [5]: 2.67 ± 0.3
- Tumor/Muscle activity concentration ratio [5]: 20.34 ± 10.25
- Tumor/Small Intestine activity concentration ratio [5]: 8.35 ± 2.48
- Tumor/Spleen activity concentration ratio [5]: 5.34 ± 1.79
- Tumor/Stomach activity concentration ratio [5]: 11.57 ± 5.25
- Blood activity concentration [6]: 1.78±0.28 % ID/g
- Bone activity concentration [6]: 0.32 ± 0.12 % ID/g
- Heart activity concentration [6]: 1.08 ± 0.32 % ID/g
- Kidney activity concentration [6]: 1.83 ± 0.57 % ID/g
- Large Intestine activity concentration [6]: 0.41 ± 0.11 % ID/g
- Liver activity concentration [6]: 1.27 ± 0.19 % ID/g
- Lung activity concentration [6]: 1.53 ± 0.28 % ID/g
- Muscle activity concentration [6]: 0.24 ± 0.08 % ID/g
- Small Intestine activity concentration [6]: 0.33 ± 0.1 % ID/g
- Spleen activity concentration [6]: 0.6 ± 0.09 % ID/g
- Stomach activity concentration [6]: 0.27 ± 0.18 % ID/g
- Tumor activity concentration [6]: 5.2±1.4 % ID/g and 5.15 ± 1.42 % ID/g
- Tumor/Blood activity concentration ratio [6]: 2.9 ± 0.92
- Tumor/Bone activity concentration ratio [6]: 15.86 ± 7.12
- Tumor/Heart activity concentration ratio [6]: 4.75 ± 1.92
- Tumor/Kidney activity concentration ratio [6]: 2.81 ± 1.16
- Tumor/Large Intestine activity concentration ratio [6]: 12.68 ± 4.87
- Tumor/Liver activity concentration ratio [6]: 4.06 ± 1.27
- Tumor/Lung activity concentration ratio [6]: 3.37 ± 1.11
- Tumor/Muscle activity concentration ratio [6]: 21.84 ± 9.2
- Tumor/Small Intestine activity concentration ratio [6]: 15.71 ± 6.48
- Tumor/Spleen activity concentration ratio [6]: 8.55 ± 2.69
- Tumor/Stomach activity concentration ratio [6]: 18.92 ± 13.29
